Assay results from the supplement of paper PMC13380429.

Assays:
[1] = system: A549-ACE2 infected with SARS-CoV-2; assay: cell count relative to DMSO; higher = less toxic; details: 24 h
HepG2 [2] = assay: relative viability EC50 (midpoint between 100% and the lowest measured viability); higher = less toxic; details: 72 h
Vero E6 [3] = assay: as above; details: 72 h
U2OS [4] = assay: as above; details: 72 h
Calu-3 [5] = assay: as above; details: 72 h
HepG2 [6] = assay: drug sensitivity score (DSS) for viability; higher = more toxic; extreme values may be limits of the assay; details: 72 h
Vero E6 [7] = assay: as above; details: 72 h
U2OS [8] = assay: as above; details: 72 h
Calu-3 [9] = assay: as above; details: 72 h
[10] = system: A549-ACE2 infected with SARS-CoV-2; assay: SARS-CoV-2 infection rate relative to DMSO; higher = more infection; details: 24 h
A549-ACE2 = assay: drug-induced phospholipidosis relative to tamoxifen; higher = more phospholipidosis
[11] = system: A549-ACE2 infected with SARS-CoV-2; assay: morphology score (similarity to uninfected cells); higher = more like uninfected cells; details: 24 h
HepG2 [12] = assay: cell viability relative to DMSO; higher = less toxic; details: 72 h
Vero E6 [13] = assay: as above; details: 72 h
U2OS [14] = assay: as above; details: 72 h
Calu-3 [15] = assay: as above; details: 72 h
Caco-2 [16] = assay: relative viability EC50 (midpoint between 100% and the lowest measured viability); higher = less toxic; details: 72 h
Caco-2 [17] = assay: drug sensitivity score (DSS) for viability; higher = more toxic; extreme values may be limits of the assay; details: 72 h
Caco-2 [18] = assay: cell viability relative to DMSO; higher = less toxic; details: 72 h

CC[C@H]1CN2CCc3cc(OC)c(OC)cc3[C@@H]2C[C@@H]1C[C@H]1NCCc2cc(OC)c(OC)cc21 [emetine]
Details | SARS-CoV-2 infection rate, [10] [%] | cell count, [1] [%] | cell viability, Calu-3 [15] [%] | cell viability, HepG2 [12] [%] | cell viability, U2OS [14] [%] | cell viability, Vero E6 [13] [%] | morphology score, [11]
1 nM | – | – | 105 | 91.7 | 101 | 94.3 | –
10 nM | – | – | 109 | 97.8 | 99.7 | 103 | –
0.1 µM | 5 | 102 | – | – | – | – | 0.87
100 nM | – | – | 99.7 | 26.1 | 43.5 | 54.9 | –
0.3 µM | 5 | 91 | – | – | – | – | 0.7
1 µM | 19 | 69 | – | – | – | – | 0.44
1000 nM | – | – | 35.3 | 14.5 | 7 | 14 | –
3 µM | 23 | 59 | – | – | – | – | 0.43
10000 nM | – | – | 30.8 | 4.5 | 2 | 6.9 | –

Details | drug sensitivity score | relative viability EC50 [µM]
Calu-3 [5] | – | 0.375
Calu-3 [9] | 12 | –
HepG2 [2] | – | 0.0543
HepG2 [6] | 26.2 | –
U2OS [4] | – | 0.0846
U2OS [8] | 24.3 | –
Vero E6 [3] | – | 0.107
Vero E6 [7] | 21.9 | –

A549-ACE2, 24 h
Details | drug-induced phospholipidosis [%]
0.3 µM | 3.73
0.833333 µM | 5.74

O=C(COc1ccc(Cl)cc1)N[C@H]1CC[C@H](NC(=O)COc2ccc(Cl)cc2)CC1 [ISRIB]
Details | SARS-CoV-2 infection rate, [10] [%] | cell count, [1] [%] | cell viability, Caco-2 [18] [%] | cell viability, Calu-3 [15] [%] | cell viability, HepG2 [12] [%] | cell viability, U2OS [14] [%] | cell viability, Vero E6 [13] [%] | morphology score, [11]
1 nM | – | – | 98.5 | 107 | 98.4 | 99.7 | 92.2 | –
10 nM | – | – | 97.1 | 88.2 | 100 | 96.2 | 98.4 | –
100 nM | – | – | 95.1 | 101 | 105 | 99 | 97.2 | –
0.3 µM | 100 | 99 | – | – | – | – | – | -0.01
1000 nM | – | – | 96.6 | 101 | 100 | 96 | 95.2 | –
3 µM | 96 | 103 | – | – | – | – | – | 0.03
10 µM | 103 | 99 | – | – | – | – | – | 0.01
10000 nM | – | – | 106 | 99.1 | 96.3 | 99.2 | 91.3 | –
30 µM | 108 | 99 | – | – | – | – | – | -0.2

Details | drug sensitivity score | relative viability EC50 [µM]
Caco-2 [16] | – | > 10
Caco-2 [17] | 0 | –
Calu-3 [5] | – | > 10
Calu-3 [9] | 0 | –
HepG2 [2] | – | > 10
HepG2 [6] | 0 | –
U2OS [4] | – | > 10
U2OS [8] | 0 | –
Vero E6 [3] | – | > 10
Vero E6 [7] | 0 | –

drug-induced phospholipidosis [%], A549-ACE2
Details | 0.3 µM | 0.833333 µM | 3.33333 µM | 6.66667 µM | 10 µM | 30 µM
24 h | -0.51 | 0.36 | -2.23 | -2.98 | 3.29 | -1.76
48 h | 0.57 | -0.91 | -1.5 | 0.01 | 2.91 | 2.54
72 h | -0.626 | -0.0303 | -1 | 1.31 | 3.63 | 5.83

C[C@H]1[C@H](C)CC[C@]2(C(=O)O)CC[C@]3(C)C(=CC[C@@H]4[C@@]5(C)C[C@@H](O)[C@H](O)[C@@](C)(CO)[C@@H]5CC[C@]43C)[C@H]12 [asiatic-acid]
Details | drug sensitivity score | relative viability EC50 [µM]
Caco-2 [16] | – | > 10
Caco-2 [17] | 0.4 | –
Calu-3 [5] | – | > 10
Calu-3 [9] | 0 | –
HepG2 [2] | – | > 10
HepG2 [6] | 0 | –
U2OS [4] | – | > 10
U2OS [8] | 0 | –
Vero E6 [3] | – | > 10
Vero E6 [7] | 0 | –

cell viability [%]
Details | Caco-2 [18] | Calu-3 [15] | HepG2 [12] | U2OS [14] | Vero E6 [13]
1 nM | 101 | 98.3 | 83.4 | 98.1 | 106
10 nM | 104 | 93.2 | 80.2 | 105 | 111
100 nM | 89.2 | 106 | 78.6 | 95.6 | 106
1000 nM | 94.2 | 90.6 | 90.2 | 104 | 93
10000 nM | 95.6 | 97.5 | 88.9 | 96.9 | 105

Cc1cnc(C(=O)N[C@H]2CCCCC/C=C\[C@@H]3C[C@@]3(C(=O)NS(=O)(=O)C3CC3)NC(=O)[C@@H]3C[C@@H](Oc4nc5ccccc5c5ccccc45)CN3C2=O)cn1 [paritaprevir]
Details | drug sensitivity score | relative viability EC50 [µM]
Caco-2 [16] | – | > 10
Caco-2 [17] | 0 | –
Calu-3 [5] | – | > 10
Calu-3 [9] | 0 | –
HepG2 [2] | – | > 10
HepG2 [6] | 0 | –
U2OS [4] | – | > 10
U2OS [8] | 0 | –
Vero E6 [3] | – | > 10
Vero E6 [7] | 0 | –

cell viability [%]
Details | Caco-2 [18] | Calu-3 [15] | HepG2 [12] | U2OS [14] | Vero E6 [13]
1 nM | 110 | 110 | 108 | 105 | 99.8
10 nM | 94.8 | 108 | 96.8 | 105 | 93.9
100 nM | 103 | 107 | 105 | 107 | 97
1000 nM | 95 | 99.9 | 94.7 | 94.8 | 94
10000 nM | 99.1 | 102 | 109 | 96.4 | 98.8

COc1cc2c(NC3CCN(C)CC3)nc(N3CCCN(C)CC3)nc2cc1OCCOCCN(C)C [UNC0321]
Details | drug sensitivity score | relative viability EC50 [µM]
Caco-2 [16] | – | > 10
Caco-2 [17] | 0 | –
Calu-3 [5] | – | > 10
Calu-3 [9] | 0 | –
HepG2 [2] | – | > 10
HepG2 [6] | 0 | –
U2OS [4] | – | > 10
U2OS [8] | 0 | –
Vero E6 [3] | – | > 10
Vero E6 [7] | 0 | –

cell viability [%]
Details | Caco-2 [18] | Calu-3 [15] | HepG2 [12] | U2OS [14] | Vero E6 [13]
1 nM | 105 | 89.5 | 99.9 | 100 | 99.7
10 nM | 94 | 107 | 107 | 100 | 104
100 nM | 102 | 99 | 105 | 98.3 | 104
1000 nM | 102 | 99.2 | 102 | 102 | 97
10000 nM | 100 | 97 | 102 | 97.6 | 96.9

CC(COc1ccccc1Cc1ccccc1)N1CCCCC1 (configuration not stated) [benproperine]
Details | drug sensitivity score | relative viability EC50 [µM]
Caco-2 [16] | – | > 10
Caco-2 [17] | 0.3 | –
Calu-3 [5] | – | > 10
Calu-3 [9] | 0 | –
HepG2 [2] | – | > 10
HepG2 [6] | 1.5 | –
U2OS [4] | – | > 10
U2OS [8] | 0 | –
Vero E6 [3] | – | > 10
Vero E6 [7] | 0 | –

cell viability [%]
Details | Caco-2 [18] | Calu-3 [15] | HepG2 [12] | U2OS [14] | Vero E6 [13]
1 nM | 90.6 | 94.8 | 104 | 92.8 | 112
10 nM | 106 | 106 | 109 | 96.3 | 100
100 nM | 96.4 | 89 | 96.5 | 92 | 103
1000 nM | 100 | 103 | 85.7 | 102 | 101
10000 nM | 83.4 | 88.4 | 87.9 | 89.3 | 98.1
